Test results as given in ChEMBL document CHEMBL6071160, “Identification of a novel 10-hydroxyevodiamine prodrug as a potent topoisomerase inhibitor with improved aqueous solubility for treatment of hepatocellular carcinoma” (Eur J Med Chem, 2024).
Active and inactive are the calls of the source. The calls are words filed in the database; no cut-off is given here.

Experiments:
Huh-7 [1] = experiment: Antiproliferative activity against human Huh-7 cells assessed as inhibition of cell proliferation incubated for 72 hrs by MTT assay; type: functional, cell-based; details: Huh-7, 72 h
SMMC-7721 = experiment: Antiproliferative activity against human SMMC-7721 cells assessed as inhibition of cell proliferation incubated for 72 hrs by MTT assay; type: functional, cell-based; details: SMMC-7721, 72 h
[2] = Drug resistance index, ratio of IC50 for antiproliferative activity against human SMMC-7721 cells to antiproliferative activity against human Doxorubicin-resistant SMMC-7721 cells; type: functional
NCI-H1703 = experiment: Antiproliferative activity against human NCI-H1703 cells assessed as decrease in EdU positive cells measured after 24 hrs by Edu incorporation based fluorescence microscopic analysis; type: functional, cell-based; details: dose 10-40 nM
[3] = target: DNA topoisomerase II (Homo sapiens) (UniProt P11388+Q02880); experiment: Inhibition of DNA topoisomerase 2 (unknown origin) assessed as relaxation of supercoiled plasmid pBR322 DNA at 25 to 100 uM incubated for 15 mins measured after 30 mins addition of ethidium bromide by agarose gel electrophoresis; type: protein assay; details: dose 25-100 µM
[4] = AUC (0 to t) in Sprague-Dawley rat at 10 mg/kg, ip measured upto 24 hrs by LC-MS/MS analysis; type: ADME, organism-based; details: in vivo
Huh-7 [5] = experiment: Induction of cell cycle arrest in human Huh-7 cells assessed as accumulation of cells at S phase 80 nM measured after 24 hrs by flow cytometric assay (reference value: 23.33%); type: functional
Huh-7 [6] = experiment: Induction of cell cycle arrest in human Huh-7 cells assessed as accumulation of cells at G1 phase 20 nM measured after 24 hrs by flow cytometric assay (reference value: 63.01%); type: functional
Huh-7 [7] = experiment: Induction of cell cycle arrest in human Huh-7 cells assessed as accumulation of cells at G2 phase 20 nM measured after 24 hrs by flow cytometric assay (reference value: 13.66%); type: functional
SK-HEP1 [8] = experiment: Induction of cell cycle arrest in human SK-HEP1 cells assessed as accumulation of cells at G2 phase 20 nM measured after 24 hrs by flow cytometric assay (reference value: 22.41%); type: functional
SK-HEP1 [9] = experiment: Induction of cell cycle arrest in human SK-HEP1 cells assessed as accumulation of cells at G1 phase 40 nM measured after 24 hrs by flow cytometric assay (reference value: 47.55%); type: functional
SK-HEP1 [10] = experiment: Induction of cell cycle arrest in human SK-HEP1 cells assessed as accumulation of cells at G2 phase 40 nM measured after 24 hrs by flow cytometric assay (reference value: 22.41%); type: functional
Huh-7 [11] = experiment: Induction of apoptosis in human Huh-7 cells assessed as viable cells at 80 nM measured after 24 hrs by Annexin-V-FITC/PI analysis (reference value: 97.46%); type: functional; details: read-out: Activity
Huh-7 [12] = experiment: Induction of apoptosis in human Huh-7 cells assessed as late apoptotic cells at 80 nM measured after 24 hrs by Annexin-V-FITC/PI analysis (reference value: 1.23%); type: functional
Huh-7 [13] = experiment: Induction of apoptosis in human Huh-7 cells assessed as late apoptotic cells at 40 nM measured after 24 hrs by Annexin-V-FITC/PI analysis (reference value: 1.23%); type: functional
SK-HEP1 [14] = experiment: Induction of apoptosis in human SK-HEP1 cells assessed as early apoptotic cells at 80 nM measured after 24 hrs by Annexin-V-FITC/PI analysis (reference value: 1.45%); type: functional
SK-HEP1 [15] = experiment: Induction of apoptosis in human SK-HEP1 cells assessed as late apoptotic cells at 80 nM measured after 24 hrs by Annexin-V-FITC/PI analysis (reference value: 0.64%); type: functional
SK-HEP1 [16] = experiment: Induction of apoptosis in human SK-HEP1 cells assessed as necrotic cells at 80 nM measured after 24 hrs by Annexin-V-FITC/PI analysis (reference value: 0.70%); type: functional
SK-HEP1 [17] = experiment: Induction of apoptosis in human SK-HEP1 cells assessed as viable cells at 40 nM measured after 24 hrs by Annexin-V-FITC/PI analysis (reference value: 97.20%); type: functional; details: read-out: Activity
Huh-7 [18] = experiment: Induction of apoptosis in human Huh-7 cells assessed as loss of mitochondrial membrane potential by measuring JC-1 stained cells at 20 nM measured after 24 hrs by JC-1 staining based flow cytometry (reference value: 2.27%); type: functional
SK-HEP1 [19] = experiment: Induction of apoptosis in human SK-HEP1 cells assessed as loss of mitochondrial membrane potential by measuring JC-1 stained cells at 80 nM measured after 24 hrs by JC-1 staining based flow cytometry (reference value: 0.49%); type: functional
SK-HEP1 [20] = experiment: Induction of apoptosis in human SK-HEP1 assessed as loss of mitochondrial membrane potential by measuring JC-1 stained cells at 40 nM measured after 24 hrs by JC-1 staining based flow cytometry (reference value: 0.49%); type: functional
Huh-7 [21] = experiment: Induction of apoptosis in human Huh-7 cells assessed as ROS generation by measuring DCFH2-DA stained cells at 20 nM measured after 24 hrs […] (reference value: 0.45%); type: functional
Huh-7 [22] = experiment: Inhibition of cell migration in human Huh-7 cells at 20 nM measured for 24 hrs by scratch wound healing assay; type: functional, cell-based
SK-HEP1 [23] = experiment: Inhibition of cell migration in human SK-HEP1 cells at 40 nM measured for 24 hrs by scratch wound healing assay; type: functional, cell-based
SK-HEP1 [24] = experiment: Inhibition of cell migration in human SK-HEP1 cells at 10 nM measured for 24 hrs by scratch wound healing assay; type: functional, cell-based
SK-HEP1 [25] = experiment: Inhibition of cell migration in human SK-HEP1 cells at 20 nM measured for 24 hrs by scratch wound healing assay; type: functional, cell-based
SK-HEP1 [26] = experiment: Inhibition of cell invasion in human SK-HEP1 cells assessed as decrease in number of cells migration into lower compartment at 40 nM measured after 24 hrs by transwell assay; type: functional, cell-based
[27] = Toxicity in BALB/c nude mouse subcutaneously injected with human Huh-7 cells assessed as changes in liver tissue at 10 mg/kg, ip administered once daily measured after 14 days by H and E staining based assay; type: organism-based; details: in vivo, 336 h, time 14 day
[28] = Toxicity in BALB/c nude mouse subcutaneously injected with human Huh-7 cells assessed as changes in spleen tissue at 10 mg/kg, ip administered once daily measured after 14 days by H and E staining based assay; type: organism-based; details: in vivo, 336 h, time 14 day
[29] = Toxicity in BALB/c nude mouse subcutaneously injected with human Huh-7 cells assessed as changes in kidney tissue at 10 mg/kg, ip administered once daily measured after 14 days by H and E staining based assay; type: organism-based; details: in vivo, 336 h, time 14 day
[30] = Toxicity in BALB/c nude mouse subcutaneously injected with human Huh-7 cells assessed as change in body weight at 10 to 20 mg/kg, ip administered once daily measured after 14 days; type: organism-based; details: in vivo, 336 h, dose 10-20 mg/kg, time 14 day
[31] = Toxicity in BALB/c nude mouse subcutaneously injected with human Huh-7 cells assessed as animal death at 10 to 20 mg/kg, ip administered once daily measured after 14 days; type: organism-based; details: in vivo, 336 h, dose 10-20 mg/kg, time 14 day
[32] = Toxicity in BALB/c nude mouse subcutaneously injected with human Huh-7 cells assessed as animal death at 40 mg/kg, ip administered once daily measured after 14 days; type: organism-based; details: in vivo, 336 h, time 14 day

C[N+](C)(C)CCC(=O)Oc1ccc2[nH]c3c(c2c1)CCN1C(=O)c2cc(F)cc(F)c2N(c2cccc(F)c2)C31.[I-] (centres undefined) showed an IC50 (Huh-7 [1]) of 40 nM, an IC50 (SMMC-7721) of 90 nM and a Ratio [2] of 1.2. For the same compound, the Activity (NCI-H1703) was “Dose-Dependent Effect”, the inhibition [3] was “Active” and the AUC(0-t) at 24 h [4] was 1540 ng·h/mL. The Activity (Huh-7 [5]) was 6.71%, the Activity (Huh-7 [6]) was 66.72% and the Activity (Huh-7 [7]) was 5.93%. It also gave an Activity (SK-HEP1 [8]) of 23.61%, an Activity (SK-HEP1 [9]) of 43.86% and an Activity (SK-HEP1 [10]) of 24.99%. For the same compound, the viability at 0.08 µM (Huh-7 [11]) was 79.7%, the Activity (Huh-7 [12]) was 11.64% and the Activity (Huh-7 [13]) was 2.89%. For the same compound, the Activity (SK-HEP1 [14]) was 22.57%, the Activity (SK-HEP1 [15]) was 11.59% and the Activity (SK-HEP1 [16]) was 1.15%. It also gave a viability at 0.04 µM (SK-HEP1 [17]) of 93.1%, an Activity (Huh-7 [18]) of 2.23% and an Activity (SK-HEP1 [19]) of 18.32%. The Activity (SK-HEP1 [20]) was 1.49%, the Activity (Huh-7 [21]) was 0.73% and the inhibition (Huh-7 [22]) was “Active”. The inhibition (SK-HEP1 [23]) was “Active”, the inhibition (SK-HEP1 [24]) was “Active” and the inhibition (SK-HEP1 [25]) was “Active”. For the same compound, the inhibition (SK-HEP1 [26]) was “Active”, the Activity [27] was “Non-Toxic” and the Activity [28] was “Non-Toxic”. The Activity [29] was “Non-Toxic”, the Activity [30] was “Non-Toxic” and the Activity [31] was “Non-Toxic”. The Activity [32] was “Toxic”.
